Legend:
Assay in all cases: relative viability (nuclei count vs DMSO), 5 days (fraction); higher = more cells survive
NCI-H2405 = tested on: NCI-H2405
In short: (§1)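 Dosing by pin tool came one day after lung cancer cell lines were seeded in 1536-well plates, using either one drug or a fixed anchor-drug dose plus five library-drug doses (not always all listed) in √10 steps. After 5 days, nuclei were counted on 4× images. Relative viability is treated-well nuclei count divided by vehicle-well nuclei count, and values are medians of duplicate plates.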

EKVX = tested on: EKVX
In short: as §1

H3255 = tested on: H3255
In short: as §1

PC-3 [JPC-3] = tested on: PC-3 [JPC-3]
In short: as §1

201T = tested on: 201T
In short: as §1

COR-L 105 = tested on: COR-L 105
In short: as §1

NCI-H2228 = tested on: NCI-H2228
In short: as §1

NCI-H23 = tested on: NCI-H23
In short: as §1

NCI-H596 = tested on: NCI-H596
In short: as §1

HARA = tested on: HARA
In short: as §1

HOP-62 = tested on: HOP-62
In short: as §1

NCI-H1975 = tested on: NCI-H1975
In short: as §1

LOU-NH91 = tested on: LOU-NH91
In short: as §1

NCI-H3122 = tested on: NCI-H3122
In short: as §1

NCI-H650 = tested on: NCI-H650
In short: as §1

HCC-827 = tested on: HCC-827
In short: as §1

NCI-H2126 = tested on: NCI-H2126
In short: as §1

NCI-H661 = tested on: NCI-H661
In short: as §1

SK-LU-1 = tested on: SK-LU-1
In short: as §1

NCI-H727 = tested on: NCI-H727
In short: as §1

## Cc1csc(=NC2CCCCC2)n1/N=C/c1ccc(O)c(O)c1O [MIM1] + CS(=O)(=O)CCNCc1ccc(-c2ccc3ncnc(Nc4ccc(OCc5cccc(F)c5)c(Cl)c4)c3c2)o1 [Lapatinib] (partner 2 µM)
NCI-H2405; first compound 0.2 µM
  relative viability: 1.13
NCI-H2405; first compound 0.6325 µM
  relative viability: 1.09
NCI-H2405; first compound 2 µM
  relative viability: 1.12
NCI-H2405; first compound 6.325 µM
  relative viability: 0.854
NCI-H2405; first compound 20 µM
  relative viability: 0.606
EKVX; first compound 0.2 µM
  relative viability: 0.186
EKVX; first compound 0.6325 µM
  relative viability: 0.221
EKVX; first compound 2 µM
  relative viability: 0.179
EKVX; first compound 6.325 µM
  relative viability: 0.177
EKVX; first compound 20 µM
  relative viability: 0.178
H3255; first compound 0.2 µM
  relative viability: 0.274
H3255; first compound 0.6325 µM
  relative viability: 0.208
H3255; first compound 2 µM
  relative viability: 0.242
H3255; first compound 6.325 µM
  relative viability: 0.22
H3255; first compound 20 µM
  relative viability: 0.198
PC-3 [JPC-3]; first compound 0.2 µM
  relative viability: 0.486
PC-3 [JPC-3]; first compound 0.6325 µM
  relative viability: 0.505
PC-3 [JPC-3]; first compound 2 µM
  relative viability: 0.424
PC-3 [JPC-3]; first compound 6.325 µM
  relative viability: 0.45
PC-3 [JPC-3]; first compound 20 µM
  relative viability: 0.46
201T; first compound 0.2 µM
  relative viability: 1.08
201T; first compound 0.6325 µM
  relative viability: 1.05
201T; first compound 2 µM
  relative viability: 1.01
201T; first compound 6.325 µM
  relative viability: 0.49
201T; first compound 20 µM
  relative viability: 0.617
COR-L 105; first compound 0.2 µM
  relative viability: 0.371
COR-L 105; first compound 0.6325 µM
  relative viability: 0.331
COR-L 105; first compound 2 µM
  relative viability: 0.373
COR-L 105; first compound 6.325 µM
  relative viability: 0.319
COR-L 105; first compound 20 µM
  relative viability: 0.294
NCI-H2228; first compound 0.2 µM
  relative viability: 1.25
NCI-H2228; first compound 0.6325 µM
  relative viability: 0.735
NCI-H2228; first compound 2 µM
  relative viability: 1.22
NCI-H2228; first compound 6.325 µM
  relative viability: 0.346
NCI-H2228; first compound 20 µM
  relative viability: 0.247
NCI-H23; first compound 0.2 µM
  relative viability: 1.13
NCI-H23; first compound 2 µM
  relative viability: 0.734
NCI-H23; first compound 6.325 µM
  relative viability: 0.88
NCI-H23; first compound 20 µM
  relative viability: 0.177
NCI-H596; first compound 0.2 µM
  relative viability: 1.13
NCI-H596; first compound 0.6325 µM
  relative viability: 1.16
NCI-H596; first compound 2 µM
  relative viability: 1.07
NCI-H596; first compound 6.325 µM
  relative viability: 0.932
NCI-H596; first compound 20 µM
  relative viability: 0.733
HARA; first compound 0.2 µM
  relative viability: 0.615
HARA; first compound 0.6325 µM
  relative viability: 0.662
HARA; first compound 2 µM
  relative viability: 0.821
HARA; first compound 6.325 µM
  relative viability: 0.55
HARA; first compound 20 µM
  relative viability: 0.128
HOP-62; first compound 0.2 µM
  relative viability: 0.929
HOP-62; first compound 0.6325 µM
  relative viability: 0.864
HOP-62; first compound 2 µM
  relative viability: 0.414
HOP-62; first compound 6.325 µM
  relative viability: 0.843
HOP-62; first compound 20 µM
  relative viability: 0.158
NCI-H1975; first compound 0.2 µM
  relative viability: 0.789
NCI-H1975; first compound 0.6325 µM
  relative viability: 0.796
NCI-H1975; first compound 2 µM
  relative viability: 0.875
NCI-H1975; first compound 6.325 µM
  relative viability: 0.537
NCI-H1975; first compound 20 µM
  relative viability: 0.395
LOU-NH91; first compound 0.2 µM
  relative viability: 0.744
LOU-NH91; first compound 0.6325 µM
  relative viability: 0.8
LOU-NH91; first compound 2 µM
  relative viability: 0.645
LOU-NH91; first compound 6.325 µM
  relative viability: 0.625
LOU-NH91; first compound 20 µM
  relative viability: 0.362
NCI-H3122; first compound 0.2 µM
  relative viability: 1.02
NCI-H3122; first compound 0.6325 µM
  relative viability: 1.07
NCI-H3122; first compound 2 µM
  relative viability: 1.01
NCI-H3122; first compound 6.325 µM
  relative viability: 0.859
NCI-H3122; first compound 20 µM
  relative viability: 0.304
NCI-H650; first compound 0.2 µM
  relative viability: 0.976
NCI-H650; first compound 0.6325 µM
  relative viability: 0.737
NCI-H650; first compound 2 µM
  relative viability: 0.897
NCI-H650; first compound 6.325 µM
  relative viability: 0.791
NCI-H650; first compound 20 µM
  relative viability: 0.235
HCC-827; first compound 0.2 µM
  relative viability: 0.21
HCC-827; first compound 0.6325 µM
  relative viability: 0.181
HCC-827; first compound 2 µM
  relative viability: 0.198
HCC-827; first compound 6.325 µM
  relative viability: 0.179
HCC-827; first compound 20 µM
  relative viability: 0.248
NCI-H2126; first compound 0.2 µM
  relative viability: 0.763
NCI-H2126; first compound 0.6325 µM
  relative viability: 0.72
NCI-H2126; first compound 2 µM
  relative viability: 0.77
NCI-H2126; first compound 6.325 µM
  relative viability: 0.679
NCI-H2126; first compound 20 µM
  relative viability: 0.339
NCI-H661; first compound 0.2 µM
  relative viability: 0.582
NCI-H661; first compound 0.6325 µM
  relative viability: 0.625
NCI-H661; first compound 2 µM
  relative viability: 0.548
NCI-H661; first compound 6.325 µM
  relative viability: 0.498
NCI-H661; first compound 20 µM
  relative viability: 0.29
SK-LU-1; first compound 0.2 µM
  relative viability: 0.825
SK-LU-1; first compound 0.6325 µM
  relative viability: 0.839
SK-LU-1; first compound 2 µM
  relative viability: 0.791
SK-LU-1; first compound 6.325 µM
  relative viability: 0.72
SK-LU-1; first compound 20 µM
  relative viability: 0.325
NCI-H727; first compound 0.2 µM
  relative viability: 0.852
NCI-H727; first compound 0.6325 µM
  relative viability: 0.969
NCI-H727; first compound 2 µM
  relative viability: 0.733
NCI-H727; first compound 6.325 µM
  relative viability: 0.745
NCI-H727; first compound 20 µM
  relative viability: 0.257

## CN1CCN(CCOc2cc(OC3CCOCC3)c3c(Nc4c(Cl)ccc5c4OCO5)ncnc3c2)CC1 [Saracatinib] + CS(=O)(=O)CCNCc1ccc(-c2ccc3ncnc(Nc4ccc(OCc5cccc(F)c5)c(Cl)c4)c3c2)o1 [Lapatinib] (partner 2 µM)
NCI-H2405; first compound 0.02 µM
  relative viability: 1.03
NCI-H2405; first compound 0.2 µM
  relative viability: 0.966
NCI-H2405; first compound 0.6325 µM
  relative viability: 0.984
NCI-H2405; first compound 2 µM
  relative viability: 0.511
EKVX; first compound 0.02 µM
  relative viability: 0.222
EKVX; first compound 0.2 µM
  relative viability: 0.165
EKVX; first compound 0.6325 µM
  relative viability: 0.238
EKVX; first compound 2 µM
  relative viability: 0.131
H3255; first compound 0.02 µM
  relative viability: 0.27
H3255; first compound 0.2 µM
  relative viability: 0.241
H3255; first compound 0.6325 µM
  relative viability: 0.271
H3255; first compound 2 µM
  relative viability: 0.239
PC-3 [JPC-3]; first compound 0.02 µM
  relative viability: 0.439
PC-3 [JPC-3]; first compound 0.2 µM
  relative viability: 0.393
PC-3 [JPC-3]; first compound 0.6325 µM
  relative viability: 0.43
PC-3 [JPC-3]; first compound 2 µM
  relative viability: 0.402
201T; first compound 0.02 µM
  relative viability: 1
201T; first compound 0.2 µM
  relative viability: 0.856
201T; first compound 0.6325 µM
  relative viability: 0.998
201T; first compound 2 µM
  relative viability: 0.859
COR-L 105; first compound 0.02 µM
  relative viability: 0.389
COR-L 105; first compound 0.2 µM
  relative viability: 0.281
COR-L 105; first compound 0.6325 µM
  relative viability: 0.311
COR-L 105; first compound 2 µM
  relative viability: 0.279
NCI-H2228; first compound 0.02 µM
  relative viability: 1.35
NCI-H2228; first compound 0.2 µM
  relative viability: 0.995
NCI-H2228; first compound 0.6325 µM
  relative viability: 1.07
NCI-H2228; first compound 2 µM
  relative viability: 0.674
NCI-H23; first compound 0.02 µM
  relative viability: 1.13
NCI-H23; first compound 0.6325 µM
  relative viability: 1.28
NCI-H23; first compound 2 µM
  relative viability: 0.895
NCI-H596; first compound 0.02 µM
  relative viability: 1.02
NCI-H596; first compound 0.2 µM
  relative viability: 1.03
NCI-H596; first compound 0.6325 µM
  relative viability: 0.994
NCI-H596; first compound 2 µM
  relative viability: 0.796
HARA; first compound 0.02 µM
  relative viability: 0.808
HARA; first compound 0.6325 µM
  relative viability: 1.1
HARA; first compound 2 µM
  relative viability: 0.442
HOP-62; first compound 0.02 µM
  relative viability: 1.21
HOP-62; first compound 0.2 µM
  relative viability: 0.816
HOP-62; first compound 0.6325 µM
  relative viability: 1.05
HOP-62; first compound 2 µM
  relative viability: 1.21
NCI-H1975; first compound 0.02 µM
  relative viability: 1.03
NCI-H1975; first compound 0.6325 µM
  relative viability: 0.819
NCI-H1975; first compound 2 µM
  relative viability: 0.687
LOU-NH91; first compound 0.02 µM
  relative viability: 0.824
LOU-NH91; first compound 0.2 µM
  relative viability: 0.713
LOU-NH91; first compound 0.6325 µM
  relative viability: 0.747
LOU-NH91; first compound 2 µM
  relative viability: 0.652
NCI-H3122; first compound 0.02 µM
  relative viability: 1.03
NCI-H3122; first compound 0.6325 µM
  relative viability: 0.894
NCI-H3122; first compound 2 µM
  relative viability: 0.781
NCI-H650; first compound 0.02 µM
  relative viability: 1
NCI-H650; first compound 0.2 µM
  relative viability: 0.85
NCI-H650; first compound 0.6325 µM
  relative viability: 0.928
NCI-H650; first compound 2 µM
  relative viability: 1.17
HCC-827; first compound 0.02 µM
  relative viability: 0.174
HCC-827; first compound 0.2 µM
  relative viability: 0.202
HCC-827; first compound 0.6325 µM
  relative viability: 0.199
HCC-827; first compound 2 µM
  relative viability: 0.163
NCI-H2126; first compound 0.02 µM
  relative viability: 0.813
NCI-H2126; first compound 0.2 µM
  relative viability: 0.686
NCI-H2126; first compound 0.6325 µM
  relative viability: 0.732
NCI-H2126; first compound 2 µM
  relative viability: 0.626
NCI-H661; first compound 0.02 µM
  relative viability: 0.456
NCI-H661; first compound 0.2 µM
  relative viability: 0.552
NCI-H661; first compound 0.6325 µM
  relative viability: 0.633
NCI-H661; first compound 2 µM
  relative viability: 0.37
SK-LU-1; first compound 0.02 µM
  relative viability: 0.818
SK-LU-1; first compound 0.2 µM
  relative viability: 0.572
SK-LU-1; first compound 0.6325 µM
  relative viability: 0.45
SK-LU-1; first compound 2 µM
  relative viability: 0.406
NCI-H727; first compound 0.02 µM
  relative viability: 0.688
NCI-H727; first compound 0.2 µM
  relative viability: 0.647
NCI-H727; first compound 0.6325 µM
  relative viability: 0.78
NCI-H727; first compound 2 µM
  relative viability: 0.587

From the supplement of paper PMC10307832
